Results as given in US20020137929A1, “1 - (3-heterocyclylphenyl) isothiourea, -isourea, -guanidine and -amidine herbicidal agents” (Intellectual Property Department, BASF Aktiengesellschaft, priority 1998, published 2002).

How the values were obtained:
[1] = tested on: AMBEL (Ragweed, Common); test: Preemergence herbicidal evaluation; assay type: in vivo, Ambrosia artemisifolia; details: rated 4-5 weeks after treatment, rating scale 0-9
Procedure, shortened: (§1)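 Scores use a 0–9 visual scale covering stand, vigor, malformation, size and chlorosis relative to controls, rated four to five weeks after treatment. Before emergence, soil-planted seeds were sprayed with compound in aqueous acetone at roughly 0.0156–0.500 kg/ha and held in the greenhouse.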

[2] = tested on: ABUTH (Velvetleaf); test: Preemergence herbicidal evaluation; assay type: in vivo, Abutilon theophrasti; details: rated 4-5 weeks after treatment, rating scale 0-9
Description: Results of herbicide evaluation are expressed on a rating scale (0-9). The scale is based upon a visual observation of plant stand, vigor, malformation, size, chlorosis and overall plant appearance as compared with a control.
The preemergence herbicidal activity of the test compounds of the present invention is exemplified by the following tests in which the seeds of a variety of monocotyledonous and dicotyledonous plants are separately mixed with potting soil and planted on top of approximately one inch of soil in separate pint cups. After planting, the cups are sprayed with the selected aqueous acetone solution containing test compound in sufficient quantity to provide the equivalent of about 0.0156 to 0.500 kg per hectare of test compound per cup. The treated cups are then placed on greenhouse benches, watered and cared for in accordance with conventional greenhouse procedures. From four to five weeks after treatment, the tests are terminated and each cup is examined and rated according to the rating system provided in Example 37.
The compounds evaluated are reported by compound number given in Example 37.

[3] = tested on: ZEAMX (Corn, Field); test: Postemergence herbicidal evaluation; assay type: in vivo, Zea mays; details: postemergence
Procedure, shortened: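 Scores (0–9) reflect plant stand, vigor, malformation, size, chlorosis and general appearance relative to control, read 4 to 5 weeks after treatment and averaged where tests were repeated. Application: about 0.0156–0.500 kg/ha sprayed at 40 psi onto two-week seedlings.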

[4] = tested on: GLXMAW (Soybean, Williams); test: Preemergence herbicidal evaluation; assay type: in vivo, Glycine max, (L.) Merr. cv Williams; details: rated 4-5 weeks after treatment, rating scale 0-9
Procedure, shortened: as §1

Row | Compound | Preemergence herbicidal rating AMBEL ([1]; rate 0.0156 kg/ha) | Preemergence herbicidal rating AMBEL ([1]; rate 0.0313 kg/ha) | Preemergence herbicidal rating AMBEL ([1]; rate 0.0625 kg/ha) | Preemergence herbicidal rating AMBEL ([1]; rate 0.1250 kg/ha) | Preemergence herbicidal rating AMBEL ([1]; rate 0.2500 kg/ha) | Preemergence herbicidal rating ABUTH ([2]; rate 0.0156 kg/ha) | Preemergence herbicidal rating ABUTH ([2]; rate 0.0313 kg/ha) | Preemergence herbicidal rating ABUTH ([2]; rate 0.0625 kg/ha) | Preemergence herbicidal rating ABUTH ([2]; rate 0.1250 kg/ha) | Preemergence herbicidal rating ABUTH ([2]; rate 0.2500 kg/ha) | Herbicidal rating ZEAMX ([3]; rate 0.0156 kg/ha) | Herbicidal rating ZEAMX ([3]; rate 0.0313 kg/ha) | Herbicidal rating ZEAMX ([3]; rate 0.0625 kg/ha) | Preemergence herbicidal rating GLXMAW ([4]; rate 0.0156 kg/ha) | Preemergence herbicidal rating GLXMAW ([4]; rate 0.0313 kg/ha) | Preemergence herbicidal rating GLXMAW ([4]; rate 0.0625 kg/ha) | Preemergence herbicidal rating GLXMAW ([4]; rate 0.1250 kg/ha) | Preemergence herbicidal rating GLXMAW ([4]; rate 0.2500 kg/ha)
1 | Cn1c(C(F)(F)F)cc(=O)n(-c2cc(N=C3SCC(=O)N3Cc3ccc(Cl)c(Cl)c3)c(Cl)cc2F)c1=O [Compound 144, 3-{4-Chloro-5-{[3-(3,4-dichlorobenzyl)-4-oxo-2-thiazolidinylidene]amino}-2-fluorophenyl}-1-methyl-6-(trifluoromethyl)-2,4(1H,3H)-pyrimidinedione] | 0.0 | 0.0 | 0.0 | 4.0 | 7.0 | 0.0 | 0.0 | 0.0 | 9.0 | 9.0 | 4.0 | 4.0 | 4.5 | 0.0 | 0.0 | 0.0 | 0.0 | 0.0
2 | Cc1cc(C)cc(CN2C(=O)CSC2=Nc2cc(-n3c(=O)cc(C(F)(F)F)n(C)c3=O)c(F)cc2Cl)c1 [Compound 146, 3-{4-Chloro-5-{[3-(3,5-dimethylbenzyl)-4-oxo-2-thiazolidinylidene]amino}-2-fluorophenyl}-1-methyl-6-(trifluoromethyl)-2,4(1H,3H)-pyrimidinedione] | 0.0 | 0.0 | 0.0 | 0.0 | 3.0 | 0.0 | – | 1.0 | 9.0 | 9.0 | 4.0 | 4.5 | 4.5 | 0.0 | 0.0 | 0.0 | 0.0 | 1.0
3 | Cn1c(C(F)(F)F)cc(=O)n(-c2cc(N=C3SCC(=O)N3Cc3cc(Cl)cc(Cl)c3)c(Cl)cc2F)c1=O [Compound 150, 3-{4-Chloro-5-{[3-(3,5-dichlorobenzyl)-4-oxo-2-thiazolidinylidene]amino}-2-fluorophenyl}-1-methyl-6-(trifluoromethyl)-2,4(1H,3H)-pyrimidinedione] | – | 0.0 | 0.0 | 3.0 | 7.0 | – | 0.0 | 4.0 | 9.0 | 9.0 | 4.0 | 4.0 | 4.0 | – | 0.0 | 0.0 | 0.0 | 2.0
4 | Cn1c(C(F)(F)F)cc(=O)n(-c2cc(N=C3SCC(=O)N3Cc3ccc(F)cc3)c(Cl)cc2F)c1=O [Compound 151, 3-{4-Chloro-2-fluoro-5-{[3-(p-fluorobenzyl)-4-oxo-2-thiazolidinylidene]amino}phenyl}-1-methyl-6-(trifluoromethyl)-2,4(1H,3H)-pyrimidinedione] | 1.0 | 7.0 | 9.0 | 9.0 | 9.0 | 9.0 | 9.0 | 9.0 | 9.0 | 9.0 | 4.0 | 4.5 | 5.0 | 2.0 | 5.0 | 4.0 | 7.0 | 7.0
5 | CCOC(=O)CN1C(=O)C(Br)SC1=Nc1cc(-n2c(=O)cc(C(F)(F)F)n(C)c2=O)c(F)cc1Cl (centres unmarked) [Compound 153, Ethyl 5-bromo-2-[{2-chloro-5-[3,6-dihydro-3-methyl-2,6-dioxo-4-(trifluoromethyl)-1(2H)-pyrimidinyl]-4-fluorophenyl}imino}-4-oxo-3-thiazolidineacetate] | – | – | – | 0.0 | 1.0 | – | – | – | 0.0 | 2.0 | 3.0 | 3.5 | 4.5 | – | – | – | 0.0 | 1.0
